Test results from US20180050993A1, “NOVEL FLUORINATED DERIVATIVES AS EGFR INHIBITORS USEFUL FOR TREATING CANCERS” (Trillium Therapeutics Inc., priority 2015, published 2018).
Counter-ions that a name gives are not always drawn. Like-named read-outs stand apart in the source and are kept apart here. Values belong to the molecule of their own block, whether it stands above or below them.

What was measured:
[1] = target: T1, EGFR (Homo sapiens, UniProt P00533); assay: Kinase HotSpot profiling (Reaction Biology), 33P-ATP filter-binding; format: biochemical; conditions: WT EGFR
T1 construct: purchased Reaction Biology
T1 sequence (P00533 25-1210): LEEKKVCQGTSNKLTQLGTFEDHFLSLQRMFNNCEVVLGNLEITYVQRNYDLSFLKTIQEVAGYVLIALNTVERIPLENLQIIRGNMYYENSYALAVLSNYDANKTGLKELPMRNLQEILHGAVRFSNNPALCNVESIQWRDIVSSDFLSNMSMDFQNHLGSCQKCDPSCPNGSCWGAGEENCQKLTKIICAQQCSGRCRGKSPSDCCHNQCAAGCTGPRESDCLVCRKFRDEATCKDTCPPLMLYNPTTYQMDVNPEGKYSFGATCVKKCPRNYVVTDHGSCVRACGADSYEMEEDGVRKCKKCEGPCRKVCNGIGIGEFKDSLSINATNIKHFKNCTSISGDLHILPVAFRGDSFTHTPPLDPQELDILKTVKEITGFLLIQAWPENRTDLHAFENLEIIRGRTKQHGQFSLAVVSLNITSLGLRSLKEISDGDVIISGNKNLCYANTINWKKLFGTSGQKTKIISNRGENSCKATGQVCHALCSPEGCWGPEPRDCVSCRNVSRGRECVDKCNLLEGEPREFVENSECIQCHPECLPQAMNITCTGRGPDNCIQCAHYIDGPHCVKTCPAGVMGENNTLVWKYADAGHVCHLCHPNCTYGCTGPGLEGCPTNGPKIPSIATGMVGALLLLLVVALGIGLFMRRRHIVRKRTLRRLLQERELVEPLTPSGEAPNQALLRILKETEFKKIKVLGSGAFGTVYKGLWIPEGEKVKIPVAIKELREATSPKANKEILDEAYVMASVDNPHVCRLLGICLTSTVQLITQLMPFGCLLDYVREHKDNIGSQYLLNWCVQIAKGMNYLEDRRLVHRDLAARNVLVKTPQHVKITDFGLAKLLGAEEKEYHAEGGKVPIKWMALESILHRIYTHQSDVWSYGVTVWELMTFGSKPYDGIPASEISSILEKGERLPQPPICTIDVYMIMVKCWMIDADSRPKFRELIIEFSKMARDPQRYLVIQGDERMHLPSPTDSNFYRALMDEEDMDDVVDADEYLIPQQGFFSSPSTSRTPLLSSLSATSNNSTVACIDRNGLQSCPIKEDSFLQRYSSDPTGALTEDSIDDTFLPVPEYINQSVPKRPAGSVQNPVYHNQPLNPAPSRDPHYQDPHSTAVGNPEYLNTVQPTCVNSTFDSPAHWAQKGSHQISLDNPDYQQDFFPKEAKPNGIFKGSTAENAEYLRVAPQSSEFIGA
Protocol: (§1) Base Reaction buffer; 20 mM Hepes (pH 7.5), 10 mM MgCl2, 1 mM EGTA, 0.02% Brij35, 0.02 mg/ml BSA, 0.1 mM Na3VO4, 2 mM DTT, 1% DMSO
(§2) *Required cofactors are added individually to each kinase reaction
(§3) 1. The indicated substrate was prepared in fresh Base Reaction Buffer.
(§4) 2. Any required cofactors were added to the substrate solution above.
(§5) 3. Indicated kinase was added into the substrate solution and gently mixed.
(§6) 4. Compounds in DMSO were added into the kinase reaction mixture by Acoustic technology (Echo550; nanoliter range) and incubated for 20 minutes at room temperature.
(§7) 5. 33P-ATP (specific activity 10 μCi/μl) was added into the reaction mixture to initiate the reaction.
(§8) 6. The kinase reaction was incubated for 2 hours at room temperature
(§9) 7. Reactions were spotted onto P81 ion exchange paper.
(§10) 8. Kinase activity was detected by filter-binding method.
(§11) Representative compounds of Formula I were evaluated against WT EGFR and mutant EGFR (L858R and L858R, T790M) kinases. IC50 concentrations are illustrated in Table 9.

[2] = target: T2, EGFR (L858R, T790M) (Homo sapiens, UniProt P00533, L858R/T790M); assay: as above; format: biochemical; conditions: mutant EGFR L858R
T2 construct: purchased Reaction Biology
T2 sequence (P00533 25-1210 T790M/L858R): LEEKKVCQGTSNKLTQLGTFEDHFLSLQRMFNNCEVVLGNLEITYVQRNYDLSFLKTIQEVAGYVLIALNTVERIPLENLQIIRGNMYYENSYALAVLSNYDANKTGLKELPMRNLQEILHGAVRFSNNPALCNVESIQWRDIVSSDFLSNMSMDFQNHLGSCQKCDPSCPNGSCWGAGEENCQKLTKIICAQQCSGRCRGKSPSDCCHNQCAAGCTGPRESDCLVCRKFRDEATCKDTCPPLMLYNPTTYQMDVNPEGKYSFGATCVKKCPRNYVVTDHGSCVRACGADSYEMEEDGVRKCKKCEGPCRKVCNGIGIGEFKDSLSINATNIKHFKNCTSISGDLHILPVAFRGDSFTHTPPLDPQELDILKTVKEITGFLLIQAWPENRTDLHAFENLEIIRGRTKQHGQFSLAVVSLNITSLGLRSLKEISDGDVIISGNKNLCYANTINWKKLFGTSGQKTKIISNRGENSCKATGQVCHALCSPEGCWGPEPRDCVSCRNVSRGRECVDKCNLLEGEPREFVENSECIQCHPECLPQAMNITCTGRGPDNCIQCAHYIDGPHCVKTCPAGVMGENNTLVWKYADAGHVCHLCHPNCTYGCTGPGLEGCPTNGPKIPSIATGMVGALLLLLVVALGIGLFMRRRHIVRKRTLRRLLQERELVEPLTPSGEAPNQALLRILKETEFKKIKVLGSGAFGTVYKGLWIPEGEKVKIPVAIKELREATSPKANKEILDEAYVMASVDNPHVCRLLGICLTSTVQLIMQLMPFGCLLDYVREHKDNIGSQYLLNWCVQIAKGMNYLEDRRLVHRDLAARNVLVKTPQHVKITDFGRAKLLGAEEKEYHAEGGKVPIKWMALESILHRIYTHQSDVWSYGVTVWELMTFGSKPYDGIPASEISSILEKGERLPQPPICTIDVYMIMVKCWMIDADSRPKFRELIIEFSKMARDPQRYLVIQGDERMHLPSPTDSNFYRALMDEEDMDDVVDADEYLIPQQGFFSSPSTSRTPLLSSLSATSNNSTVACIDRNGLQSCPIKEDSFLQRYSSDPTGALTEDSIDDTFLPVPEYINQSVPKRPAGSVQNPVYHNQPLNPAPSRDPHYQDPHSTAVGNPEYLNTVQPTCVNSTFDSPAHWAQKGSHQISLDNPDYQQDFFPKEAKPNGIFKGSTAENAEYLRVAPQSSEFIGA
Protocol: as §1, §2, §3, §4, §5, §6, §7, §8, §9, §10, §11

[3] = target: T3, EGFR (L858R) (Homo sapiens, UniProt P00533, L858R); assay: as above; format: biochemical; conditions: mutant EGFR L858R
T3 construct: purchased Reaction Biology
T3 sequence (P00533 25-1210 L858R): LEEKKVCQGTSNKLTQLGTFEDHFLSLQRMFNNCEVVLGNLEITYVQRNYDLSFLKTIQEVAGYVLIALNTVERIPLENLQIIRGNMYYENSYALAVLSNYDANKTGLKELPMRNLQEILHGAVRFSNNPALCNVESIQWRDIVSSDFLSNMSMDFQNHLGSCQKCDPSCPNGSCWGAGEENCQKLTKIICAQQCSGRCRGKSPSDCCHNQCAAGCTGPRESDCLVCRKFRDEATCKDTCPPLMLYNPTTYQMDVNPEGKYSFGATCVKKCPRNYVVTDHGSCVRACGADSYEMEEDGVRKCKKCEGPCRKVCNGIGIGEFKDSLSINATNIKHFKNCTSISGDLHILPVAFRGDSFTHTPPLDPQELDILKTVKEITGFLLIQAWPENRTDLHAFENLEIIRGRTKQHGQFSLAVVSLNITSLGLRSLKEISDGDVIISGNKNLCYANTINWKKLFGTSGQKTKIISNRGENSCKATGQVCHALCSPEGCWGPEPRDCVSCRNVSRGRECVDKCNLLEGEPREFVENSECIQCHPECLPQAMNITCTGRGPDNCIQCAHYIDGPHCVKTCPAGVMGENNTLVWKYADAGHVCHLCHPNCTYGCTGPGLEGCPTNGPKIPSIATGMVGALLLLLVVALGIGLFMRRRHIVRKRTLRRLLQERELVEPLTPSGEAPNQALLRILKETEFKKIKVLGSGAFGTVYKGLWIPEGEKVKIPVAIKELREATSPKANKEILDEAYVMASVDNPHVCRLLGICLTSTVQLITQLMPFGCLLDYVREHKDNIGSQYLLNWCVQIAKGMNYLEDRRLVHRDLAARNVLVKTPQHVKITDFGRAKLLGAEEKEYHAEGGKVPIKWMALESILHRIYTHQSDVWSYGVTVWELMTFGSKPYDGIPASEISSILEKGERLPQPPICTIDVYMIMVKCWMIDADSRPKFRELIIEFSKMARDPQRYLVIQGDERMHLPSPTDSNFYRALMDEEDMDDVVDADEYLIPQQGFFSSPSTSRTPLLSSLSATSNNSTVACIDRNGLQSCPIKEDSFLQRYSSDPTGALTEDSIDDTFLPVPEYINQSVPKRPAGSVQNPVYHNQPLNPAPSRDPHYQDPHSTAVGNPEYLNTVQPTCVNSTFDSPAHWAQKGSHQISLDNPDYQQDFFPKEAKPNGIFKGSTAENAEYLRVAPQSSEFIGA
Protocol: as §1, §2, §3, §4, §5, §6, §7, §8, §9, §10, §11

[4] = Brain concentrations after PO administration in rat, peak at 8 hours (Table 5); format: in vivo; conditions: Table 5 (8 hours); for Kp at 8 h: brain/plasma, po, 50 mg/kg
[5] = target: T4, EPHA6 (Homo sapiens, UniProt Q9UF33); assay: Kinome screen at 300 nM (qPCR competition binding); parameters: purchased DiscoveRx; host or cells: E. coli BL21-derived (T7 phage) or HEK-293; conditions: result in words
T4 sequence (Q9UF33 23-1036): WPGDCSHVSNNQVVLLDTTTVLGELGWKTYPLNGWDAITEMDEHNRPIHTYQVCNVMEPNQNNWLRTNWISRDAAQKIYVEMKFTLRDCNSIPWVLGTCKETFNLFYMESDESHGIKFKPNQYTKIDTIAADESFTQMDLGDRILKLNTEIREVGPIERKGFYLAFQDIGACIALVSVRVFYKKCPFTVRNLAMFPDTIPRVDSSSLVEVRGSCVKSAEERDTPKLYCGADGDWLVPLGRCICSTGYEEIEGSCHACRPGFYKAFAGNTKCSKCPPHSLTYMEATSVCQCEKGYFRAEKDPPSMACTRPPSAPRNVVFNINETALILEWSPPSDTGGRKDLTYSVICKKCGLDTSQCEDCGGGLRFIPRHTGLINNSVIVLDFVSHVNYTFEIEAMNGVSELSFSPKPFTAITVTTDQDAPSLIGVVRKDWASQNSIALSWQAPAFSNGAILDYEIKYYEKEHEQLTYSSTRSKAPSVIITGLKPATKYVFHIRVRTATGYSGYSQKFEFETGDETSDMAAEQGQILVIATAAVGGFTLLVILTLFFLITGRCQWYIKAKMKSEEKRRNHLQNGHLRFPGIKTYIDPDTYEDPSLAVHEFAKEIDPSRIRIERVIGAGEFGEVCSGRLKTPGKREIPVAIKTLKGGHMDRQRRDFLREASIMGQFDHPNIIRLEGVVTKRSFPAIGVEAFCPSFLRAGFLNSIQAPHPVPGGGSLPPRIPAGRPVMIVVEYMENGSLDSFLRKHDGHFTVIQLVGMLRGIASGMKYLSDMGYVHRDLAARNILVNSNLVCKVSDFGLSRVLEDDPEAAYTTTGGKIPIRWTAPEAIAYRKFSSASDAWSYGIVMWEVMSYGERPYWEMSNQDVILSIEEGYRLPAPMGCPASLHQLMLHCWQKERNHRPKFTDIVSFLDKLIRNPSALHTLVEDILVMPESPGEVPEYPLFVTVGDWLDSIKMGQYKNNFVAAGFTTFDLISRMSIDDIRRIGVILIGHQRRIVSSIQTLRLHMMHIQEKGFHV

[6] = Human liver microsomal stability; format: in vitro ADME; conditions: stability in pooled human (50 donors) liver microsomes 0.5 mg/ml, compound 1 μM, parent compound by LC/MS
Protocol: (§12) Working stocks were initially diluted to a concentration of 40.0 μM in 0.1 M potassium phosphate buffer before addition to the reaction vials. Pooled mouse (CD-1, male) or human (50 donors) liver microsomes were utilized at a final concentration of 0.5 mg/ml. Duplicate wells were used for each time point (0 and 30 minutes). Reactions were carried out at 37° C. in a shaker, and the final concentration of DMSO was kept constant at 0.01%. The final volume for each reaction was 100 μL, which includes the addition of an NADPH-Regeneration solution (NRS) mix. This NRS mix is comprised of glucose 6-phosphate dehydrogenase (0.4 U/mL), NADP+ (1.3 mM), MgCl2 (3.3 mM), and glucose 6-phosphate (3.3 mM) in assay mixtures. Upon completion of the 30 minute time point, reactions were terminated by the addition of 1.5-volumes (150 μL) of ice-cold, acetonitrile with 0.5% formic acid and internal standard. Samples were then centrifuged at 4,000 rpm for 10 minutes to remove debris and precipitated protein. Approximately 150 μL of supernatant was subsequently transferred to a new 96 well microplate for LC/MS analysis.
(§13) Narrow-window mass extraction LC/MS analysis was performed for all samples using a Waters Xevo quadrupole time-of-flight (QTof) mass spectrometer and an ACQUITY UPLC system, to determine relative peak areas of parent compound.
(§14) Human and mouse liver microsomes contain a wide variety of drug metabolizing enzymes and are commonly used to support in vitro ADME (absorption, distribution, metabolism and excretion) studies. These microsomes are used to examine the potential first-pass metabolism by-products of orally administered drugs. Representative compounds of the application were evaluated for their stability in human and mouse liver microsomes.

[7] = target: T4, EPHA6; assay: Binding constants (Kd) for EPHA6, kinase competition binding with qPCR readout
[8] = Mouse liver microsomal stability; format: in vitro ADME; conditions: stability in pooled mouse (CD-1, male) liver microsomes 0.5 mg/ml, compound 1 μM, parent compound by LC/MS, in % (unit assumed)
Protocol: as §12, §13, §14

[9] = target: T5, P-gp (Homo sapiens, UniProt P08183); assay: Evaluation of P-gp efflux in Caco-2 cell monolayers; format: in vitro ADME;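 also: Caco-2 monolayers dosed apically or basolaterally with test compound at 5 µM in HBSS with HEPES and glucose, 37 °C, donor and receiver sampled after 120 min, LC/MS peak areas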
T5 construct: host or cells: Caco-2 (C2BBe1)
T5 sequence (P08183 whole entry): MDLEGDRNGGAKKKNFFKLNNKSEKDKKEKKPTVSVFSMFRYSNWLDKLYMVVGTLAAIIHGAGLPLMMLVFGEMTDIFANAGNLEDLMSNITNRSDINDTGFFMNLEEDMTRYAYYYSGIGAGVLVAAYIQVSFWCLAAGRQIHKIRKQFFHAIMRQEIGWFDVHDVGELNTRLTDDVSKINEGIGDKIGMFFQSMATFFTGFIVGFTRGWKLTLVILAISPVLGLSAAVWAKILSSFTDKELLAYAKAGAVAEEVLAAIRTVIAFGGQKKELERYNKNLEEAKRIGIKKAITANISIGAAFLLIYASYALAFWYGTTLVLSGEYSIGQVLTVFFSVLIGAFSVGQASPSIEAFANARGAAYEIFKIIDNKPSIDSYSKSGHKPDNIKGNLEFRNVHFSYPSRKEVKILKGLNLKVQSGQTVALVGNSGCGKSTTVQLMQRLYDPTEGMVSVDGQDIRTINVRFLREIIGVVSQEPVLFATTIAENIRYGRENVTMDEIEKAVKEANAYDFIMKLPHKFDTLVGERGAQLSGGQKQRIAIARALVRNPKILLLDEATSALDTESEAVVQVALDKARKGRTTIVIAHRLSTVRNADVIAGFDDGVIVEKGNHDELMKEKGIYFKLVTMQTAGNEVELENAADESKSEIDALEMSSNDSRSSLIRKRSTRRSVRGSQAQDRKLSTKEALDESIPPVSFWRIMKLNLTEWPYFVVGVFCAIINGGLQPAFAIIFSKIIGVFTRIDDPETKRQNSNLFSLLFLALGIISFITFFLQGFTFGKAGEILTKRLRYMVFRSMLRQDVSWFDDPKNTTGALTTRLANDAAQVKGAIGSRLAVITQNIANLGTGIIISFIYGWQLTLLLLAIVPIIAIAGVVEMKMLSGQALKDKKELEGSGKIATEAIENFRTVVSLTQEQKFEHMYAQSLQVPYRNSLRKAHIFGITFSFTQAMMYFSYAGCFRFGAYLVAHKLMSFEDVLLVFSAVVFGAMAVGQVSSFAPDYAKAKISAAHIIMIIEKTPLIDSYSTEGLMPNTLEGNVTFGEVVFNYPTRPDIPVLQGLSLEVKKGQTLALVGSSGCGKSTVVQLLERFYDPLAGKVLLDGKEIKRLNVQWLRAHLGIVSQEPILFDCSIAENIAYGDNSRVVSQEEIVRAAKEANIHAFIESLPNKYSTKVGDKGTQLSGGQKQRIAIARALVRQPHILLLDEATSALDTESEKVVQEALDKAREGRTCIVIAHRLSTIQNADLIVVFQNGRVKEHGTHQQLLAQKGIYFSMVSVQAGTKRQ

[10] = Brain and plasma concentrations after oral gavage in rat, sampling to 4 hours (Table 4); format: in vivo; conditions: Table 4 (4 hours); for AUClast / Cmax / Tmax: brain tissue, PO 50 mg/kg; for Cmax / Tmax / Kp at 4 h: male, Sprague-Dawley (SD); for Kp at 4 h: brain/plasma, po, 50 mg/kg
[11] = test system: HCC827; assay: Comparison with 1st generation inhibitors against a lung cancer cell line (HCC827); format: cell-based; conditions: Homo sapiens, read-out: Biochemical IC50
[12] = test system: EGFR(L747-T751del, Sins); assay: Kinome screen at 300 nM (qPCR competition binding)
[13] = Sprague-Dawley, brain, PO 50 mg/kg

IC50 [1]: 0.0138 nM | IC50 [2]: 6820 nM | IC50 [3]: 0.0164 nM
Compound: COc1cc2ncnc(Nc3ccc(F)c(Cl)c3F)c2cc1OC(=O)N1CC[C@@H](COC(F)F)C1 [2(Qq), [4-(3-chloro-2,4-difluoro-anilino)-7-methoxy-quinazolin-6-yl] (3R)-3-(difluoromethoxymethyl)pyrrolidine-1-carboxylate]

IC50 [1]: 0.0434 nM | IC50 [2]: 4010 nM | IC50 [3]: 0.0142 nM
Compound: COc1cc2ncnc(Nc3ccc(F)c(Cl)c3F)c2cc1OCCCN1CCC(OC(F)F)CC1 [2(q), N-(3-chloro-2,4-difluoro-phenyl)-6-[3-[4-(difluoromethoxy)-1-piperidyl]propoxy]-7-methoxy-quinazolin-4-amine]

Cmax [4, 13]: 5610 ng/g | Tmax [4, 13]: 8 h | Kp at 8 h ([4]; Sprague-Dawley, read-out: AUCLast Ratio (Brain/Plasma)): 1.5 | Kp at 8 h ([4]; Sprague-Dawley, read-out: Cmax Ratio (Brain/Plasma)): 1.72 | AUCInf ([4]; brain, PO 50 mg/kg): 102348 ng·h/g | AUClast ([4]; brain, PO 50 mg/kg): 101853 ng·h/g | selectivity over erlotinib for the ephrin receptor kinase, EPHA6 [5]: did show selectivity over erlotinib | HLM (30 min) ([6]; listed as 2(a)•HCl): 97.4% | Kd [7]: 9.1 nM | MLM (30 min) ([8]; listed as 2(a)•HCl): 91.7 | recovery at 120 min, 5 μM ([9]; Caco-2, pH 7.4, with none (verapamil 0 μM), Caco-2, Verapamil 0 μM, read-out: Recovery (%) AP-BL): 43.4% | recovery at 120 min, 5 μM ([9]; Caco-2, pH 7.4, with none (verapamil 0 μM), Caco-2, Verapamil 0 μM, read-out: Recovery (%) BL-AP): 57.1% | recovery at 120 min, 5 μM ([9]; Caco-2, pH 7.4, with verapamil 100 μM, Caco-2, Verapamil 100 μM, read-out: Recovery (%) AP-BL): 55.5% | recovery at 120 min, 5 μM ([9]; Caco-2, pH 7.4, with verapamil 100 μM, Caco-2, Verapamil 100 μM, read-out: Recovery (%) BL-AP): 83.2% | Papp A→B at 120 min, 5 μM ([9]; pH 7.4, Caco-2, Verapamil 0 μM): 0.58 ×10⁻⁶ cm/s | Papp B→A at 120 min, 5 μM ([9]; pH 7.4, Caco-2, Verapamil 0 μM): 0.35 ×10⁻⁶ cm/s | efflux ratio at 120 min, 5 µM ([9]; pH 7.4, Caco-2, Verapamil 0 μM): 0.59 | AUClast [10]: 22593 ng·h/g | Cmax [10]: 6980 ng/g | Tmax [10]: 4 h | Kp at 4 h ([10]; read-out: AUCLast Ratio (Brain/Plasma)): 1.69 | Kp at 4 h ([10]; read-out: Cmax Ratio (Brain/Plasma)): 1.81 | IC50 [11]: 21 nM
Compound: Fc1c(Nc2ncnc3cc(OCCOC(F)F)c(OCCOC(F)F)cc23)ccc(Cl)c1Cl [Compound 2A•HCl, N-(3,4-dichloro-2-fluoro-phenyl)-6,7-bis[2 (difluoromethoxy)ethoxy]quinazolin-4-amine]

% Control @ 300 nM [12]: 0.12% | HLM (30 min) [6]: 75.5% | MLM (30 min) [8]: 56.3 | AUClast [10]: 4319 ng·h/g | Cmax [10]: 1710 ng/g | Tmax [10]: 4 h
Compound: C#Cc1cccc(Nc2ncnc3cc(OCCOC)c(OCCOC)cc23)c1 [Erlotinib, N-(3-ethynylphenyl)-6,7-bis(2-methoxyethoxy)quinazolin-4-amine, reference compound]
